pIC50: −log10 of the molar value.

Data set [1] deals with systemic lupus erythematosis model. Conditions: Nature Medicine, 2005, 11, 933-935; cited from earlier work.
The subject of data set [2] is rheumatoid arthritis model. Conditions: Nature Medicine, 2005, 11, 936-943; cited from earlier work.
Data set [3] addresses PI3K (p110β/p85α) (h) (Homo sapiens (Human), UniProt P42338). Description: PI3K (p110β/p85α) (h) non-radioactive HTRF kinase assay. In kind it is biochemical. Conditions: performed at Millipore UK Ltd. Here is the method:
(§1) The above assay procedure can be used to determine the IC50 for inhibition and/or the inhibition constant, Ki.
PI3K (p110β/p85α) (h) [Non-Radioactive Assay]
(§2) PI3K (p1103/p85α) (h) is incubated in assay buffer containing 10 μM phosphatidylinositol-4, 5-bisphosphate and MgATP (concentration as required). The reaction is initiated by the addition of the MgATP mix. After incubation for 30 minutes at room temperature, the reaction is stopped by the addition of stop solution containing EDTA and biotinylated phosphatidylinositol-3,4,5-trisphosphate. Finally, detection buffer is added, which contains europium-labelled anti-GST monoclonal antibody, GST-tagged GRP1 PH domain and streptavidin-allophycocyanin. The plate is then read in timeresolved fluorescence mode and the homogenous time-resolved fluorescence (HTRF) signal is determined according to the formula HTRF=10000×(Em665 nm/Em620 nm).
(§3) The kinase assays described herein were performed at Millipore UK Ltd, Dundee Technology Park, Dundee DD2 1SW, UK.

Data set [4] addresses PI3K (p120γ) (h) (Homo sapiens (Human), UniProt P48736). Put plainly: PI3K (p120γ) (h) non-radioactive HTRF kinase assay. In kind it is biochemical. The settings on record: performed at Millipore UK Ltd. Here is the method: as §1
PI3K (p120γ) (h) [Non-Radioactive Assay]
as §2, with “(p120γ)” for “(p1103/p85α)”
as §3

Data set [5] is described as follows: Pharmacokinetic profiles in rats. In kind it is in vivo, rat. An outline of the steps: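 In rats, dogs and monkeys, IV dose was generally 1 or 2 mg/kg. Oral dose was generally 5 or 10 mg/kg in rats and 10 mg/kg in dogs and monkeys, given as solution, suspension or capsule. Plasma sampled over up to 24 h and analysed by LC/MS/MS.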
Data set [6] addresses PI3K (p110α/p85α) (h) (Homo sapiens (Human), UniProt P42336). Put plainly: PI3K (p110α/p85α) (h) non-radioactive HTRF kinase assay. The class given is biochemical. Conditions: performed at Millipore UK Ltd. The procedure: as §1
PI3K (p110α/p85α) (h) [Non-Radioactive Assay]
as §2, with “(p110α/p85α)” for “(p1103/p85α)”, “phosphatidylinositol 4,5-bisphosphate” for “phosphatidylinositol-4, 5-bisphosphate”, “ATP solution.” for “MgATP mix.”, “streptavidin allophycocyanin.” for “streptavidin-allophycocyanin.”
as §3

Data set [7] is described as follows: Compound stability in human liver microsomes. In kind it is in vitro ADME. Conditions: pH 7.4; for CLint scaled at 5 μM: liver microsomes, in vivo CLint extrapolated from human liver microsome incubation; for half-life at 5 μM: human liver microsomes 0.5 mg protein/mL, compound 5 μM, NADPH 1.0 mM, 37° C., read-out: Human T1/2. An outline of the steps:
(§4)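 Human or rat liver microsomes (0.5 mg protein/mL) incubated with compound (5 μM) and NADPH (1.0 mM) in 100 mM potassium phosphate, pH 7.4, 0.05% DMSO, 37° C, sampled 0–60 min and quenched with cold acetonitrile. Remaining compound quantified by LC/MS/MS as % of time zero; CLint extrapolated.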

Data set [8] is described as follows: Compound stability in rat liver microsomes. In kind it is in vitro ADME. The settings on record: pH 7.4; for CLint scaled at 5 μM: liver microsomes, in vivo CLint extrapolated from rat liver microsome incubation; for half-life at 5 μM: rat liver microsomes 0.5 mg protein/mL, compound 5 μM, NADPH 1.0 mM, 37° C., read-out: Rat T1/2. An outline of the steps:
as §4

Data set [9] deals with PI3K (p110δ/p85α) (h) (Homo sapiens (Human), UniProt O00329). Description: PI3K (p110δ/p85α) (h) non-radioactive HTRF kinase assay. Conditions: performed at Millipore UK Ltd. The class given is biochemical. Here is the method: as §1
PI3K (p110δ/p85α) (h) [Non-Radioactive Assay]
as §2, with “(p110δ/p85α)” for “(p1103/p85α)”
as §3
A general note: TR-FRET usually uses a lanthanide donor and a delayed reading to cut background.

Data set [10] deals with PI3Kδ. The settings on record: Cell, 2006, 125, 733-747; cited from earlier work.
The subject of data set [11] is ovalbumin-induced airway inflammation. Conditions: murine asthma model, FASEB, 2006, 20: 455-465; cited from earlier work.
Data set [12] concerns protein kinases. The settings on record: Cell, 2006, 125, 733-747; cited from earlier work.

PI3K (p120γ) (h), sequence (P48736 whole entry): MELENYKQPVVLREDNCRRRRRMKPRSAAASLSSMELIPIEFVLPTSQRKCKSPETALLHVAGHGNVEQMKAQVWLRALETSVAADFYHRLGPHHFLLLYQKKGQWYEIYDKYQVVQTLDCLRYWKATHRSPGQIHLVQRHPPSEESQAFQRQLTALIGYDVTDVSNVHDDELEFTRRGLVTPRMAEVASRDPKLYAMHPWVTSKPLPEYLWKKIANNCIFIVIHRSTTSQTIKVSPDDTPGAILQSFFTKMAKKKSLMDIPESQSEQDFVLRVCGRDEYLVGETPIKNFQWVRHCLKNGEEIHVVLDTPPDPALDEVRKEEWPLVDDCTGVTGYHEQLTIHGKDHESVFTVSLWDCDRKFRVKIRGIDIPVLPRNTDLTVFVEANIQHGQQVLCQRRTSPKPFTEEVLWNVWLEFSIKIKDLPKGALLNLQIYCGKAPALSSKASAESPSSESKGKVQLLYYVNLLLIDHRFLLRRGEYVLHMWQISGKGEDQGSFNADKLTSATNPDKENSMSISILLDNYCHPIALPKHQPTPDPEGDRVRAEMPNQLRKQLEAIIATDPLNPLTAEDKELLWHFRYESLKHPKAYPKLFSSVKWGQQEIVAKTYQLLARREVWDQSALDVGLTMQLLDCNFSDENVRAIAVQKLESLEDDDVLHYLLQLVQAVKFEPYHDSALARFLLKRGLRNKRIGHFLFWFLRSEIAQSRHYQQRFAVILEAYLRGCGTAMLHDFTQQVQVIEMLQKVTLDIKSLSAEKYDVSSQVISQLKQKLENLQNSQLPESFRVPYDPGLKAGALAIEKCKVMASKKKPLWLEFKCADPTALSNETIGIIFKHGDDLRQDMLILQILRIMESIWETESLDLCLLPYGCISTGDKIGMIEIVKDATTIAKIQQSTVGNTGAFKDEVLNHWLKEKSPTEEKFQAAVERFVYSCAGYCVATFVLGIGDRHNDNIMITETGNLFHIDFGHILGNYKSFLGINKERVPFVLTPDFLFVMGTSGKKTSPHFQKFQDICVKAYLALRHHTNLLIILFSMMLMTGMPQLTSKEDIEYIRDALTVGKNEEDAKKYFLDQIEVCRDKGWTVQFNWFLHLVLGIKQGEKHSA
PI3K (p110β/p85α) (h), sequence (P42338 whole entry): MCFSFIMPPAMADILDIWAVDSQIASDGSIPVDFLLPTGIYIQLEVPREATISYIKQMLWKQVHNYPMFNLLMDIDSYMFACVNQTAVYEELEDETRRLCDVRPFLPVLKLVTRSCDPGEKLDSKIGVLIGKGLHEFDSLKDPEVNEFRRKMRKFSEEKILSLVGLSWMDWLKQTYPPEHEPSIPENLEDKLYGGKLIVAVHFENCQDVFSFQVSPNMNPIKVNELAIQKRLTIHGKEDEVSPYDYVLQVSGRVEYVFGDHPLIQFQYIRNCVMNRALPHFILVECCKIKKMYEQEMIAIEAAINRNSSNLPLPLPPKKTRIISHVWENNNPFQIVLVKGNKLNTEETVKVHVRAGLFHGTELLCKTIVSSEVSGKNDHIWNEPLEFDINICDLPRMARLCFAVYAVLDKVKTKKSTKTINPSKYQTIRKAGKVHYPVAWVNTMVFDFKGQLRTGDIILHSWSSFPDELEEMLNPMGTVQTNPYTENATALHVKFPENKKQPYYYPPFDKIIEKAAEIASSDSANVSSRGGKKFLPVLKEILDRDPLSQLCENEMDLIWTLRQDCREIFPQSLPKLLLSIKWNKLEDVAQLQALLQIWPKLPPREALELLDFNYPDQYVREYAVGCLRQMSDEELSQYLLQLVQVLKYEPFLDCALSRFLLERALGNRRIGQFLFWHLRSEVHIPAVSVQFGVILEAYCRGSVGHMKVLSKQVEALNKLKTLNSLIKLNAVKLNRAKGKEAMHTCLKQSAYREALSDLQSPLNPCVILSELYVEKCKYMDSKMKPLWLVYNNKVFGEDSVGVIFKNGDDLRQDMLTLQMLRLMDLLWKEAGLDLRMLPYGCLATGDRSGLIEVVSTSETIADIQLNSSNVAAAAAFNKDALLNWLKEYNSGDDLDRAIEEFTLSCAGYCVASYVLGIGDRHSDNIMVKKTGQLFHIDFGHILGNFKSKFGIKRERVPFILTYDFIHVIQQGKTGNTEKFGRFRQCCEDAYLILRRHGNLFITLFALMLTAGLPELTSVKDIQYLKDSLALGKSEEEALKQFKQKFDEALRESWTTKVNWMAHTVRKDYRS
PI3K (p110β/p85α) (h), sequence (P27986 whole entry partner): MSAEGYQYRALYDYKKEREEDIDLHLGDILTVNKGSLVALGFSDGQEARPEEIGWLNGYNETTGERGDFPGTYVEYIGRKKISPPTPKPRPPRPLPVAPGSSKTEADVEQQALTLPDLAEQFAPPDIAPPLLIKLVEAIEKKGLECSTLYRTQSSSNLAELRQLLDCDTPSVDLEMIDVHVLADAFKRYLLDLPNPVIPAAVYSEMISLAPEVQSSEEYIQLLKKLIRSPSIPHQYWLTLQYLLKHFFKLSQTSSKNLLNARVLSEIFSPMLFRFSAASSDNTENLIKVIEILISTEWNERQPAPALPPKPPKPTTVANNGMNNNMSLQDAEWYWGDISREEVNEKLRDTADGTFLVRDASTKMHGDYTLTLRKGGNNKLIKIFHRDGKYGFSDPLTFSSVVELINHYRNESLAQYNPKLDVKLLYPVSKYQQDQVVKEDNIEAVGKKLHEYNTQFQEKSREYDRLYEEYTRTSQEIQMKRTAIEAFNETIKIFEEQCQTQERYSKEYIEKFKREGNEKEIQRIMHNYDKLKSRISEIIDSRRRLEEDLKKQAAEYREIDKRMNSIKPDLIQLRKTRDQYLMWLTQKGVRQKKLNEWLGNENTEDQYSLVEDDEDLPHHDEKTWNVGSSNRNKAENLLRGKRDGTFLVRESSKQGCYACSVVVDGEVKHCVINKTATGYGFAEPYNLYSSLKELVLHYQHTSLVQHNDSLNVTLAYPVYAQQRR
PI3K (p110α/p85α) (h), sequence (P42336 whole entry): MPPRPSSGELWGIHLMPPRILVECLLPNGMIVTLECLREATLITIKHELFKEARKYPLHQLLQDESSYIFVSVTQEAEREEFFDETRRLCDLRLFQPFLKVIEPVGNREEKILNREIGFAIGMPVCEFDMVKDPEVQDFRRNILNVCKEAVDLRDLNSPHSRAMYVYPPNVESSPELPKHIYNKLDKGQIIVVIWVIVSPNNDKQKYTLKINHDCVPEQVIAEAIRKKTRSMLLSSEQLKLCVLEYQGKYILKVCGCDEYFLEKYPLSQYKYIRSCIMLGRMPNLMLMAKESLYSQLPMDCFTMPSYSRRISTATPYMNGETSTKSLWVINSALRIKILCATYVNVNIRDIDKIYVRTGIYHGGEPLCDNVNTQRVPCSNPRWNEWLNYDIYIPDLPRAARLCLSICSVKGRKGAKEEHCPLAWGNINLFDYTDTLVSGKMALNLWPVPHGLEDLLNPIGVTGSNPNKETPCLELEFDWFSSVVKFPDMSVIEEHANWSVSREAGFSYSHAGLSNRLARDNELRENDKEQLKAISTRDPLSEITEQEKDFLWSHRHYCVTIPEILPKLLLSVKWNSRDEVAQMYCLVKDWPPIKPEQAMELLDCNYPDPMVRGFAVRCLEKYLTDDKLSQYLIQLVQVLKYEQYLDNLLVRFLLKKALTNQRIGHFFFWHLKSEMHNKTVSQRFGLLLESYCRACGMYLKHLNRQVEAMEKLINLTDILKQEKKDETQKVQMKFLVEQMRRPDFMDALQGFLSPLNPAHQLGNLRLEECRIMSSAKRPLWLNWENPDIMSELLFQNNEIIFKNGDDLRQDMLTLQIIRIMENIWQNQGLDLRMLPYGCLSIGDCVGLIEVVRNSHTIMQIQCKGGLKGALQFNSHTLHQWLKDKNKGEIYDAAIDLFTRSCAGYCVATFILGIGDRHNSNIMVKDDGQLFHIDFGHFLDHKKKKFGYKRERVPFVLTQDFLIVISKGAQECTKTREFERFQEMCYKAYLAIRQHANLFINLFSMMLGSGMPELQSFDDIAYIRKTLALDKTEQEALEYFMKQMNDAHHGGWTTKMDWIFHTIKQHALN
PI3K (p110α/p85α) (h), sequence (P27986 whole entry partner): as the sequence (P27986 whole entry partner) above
PI3K (p110δ/p85α) (h), sequence (O00329 whole entry): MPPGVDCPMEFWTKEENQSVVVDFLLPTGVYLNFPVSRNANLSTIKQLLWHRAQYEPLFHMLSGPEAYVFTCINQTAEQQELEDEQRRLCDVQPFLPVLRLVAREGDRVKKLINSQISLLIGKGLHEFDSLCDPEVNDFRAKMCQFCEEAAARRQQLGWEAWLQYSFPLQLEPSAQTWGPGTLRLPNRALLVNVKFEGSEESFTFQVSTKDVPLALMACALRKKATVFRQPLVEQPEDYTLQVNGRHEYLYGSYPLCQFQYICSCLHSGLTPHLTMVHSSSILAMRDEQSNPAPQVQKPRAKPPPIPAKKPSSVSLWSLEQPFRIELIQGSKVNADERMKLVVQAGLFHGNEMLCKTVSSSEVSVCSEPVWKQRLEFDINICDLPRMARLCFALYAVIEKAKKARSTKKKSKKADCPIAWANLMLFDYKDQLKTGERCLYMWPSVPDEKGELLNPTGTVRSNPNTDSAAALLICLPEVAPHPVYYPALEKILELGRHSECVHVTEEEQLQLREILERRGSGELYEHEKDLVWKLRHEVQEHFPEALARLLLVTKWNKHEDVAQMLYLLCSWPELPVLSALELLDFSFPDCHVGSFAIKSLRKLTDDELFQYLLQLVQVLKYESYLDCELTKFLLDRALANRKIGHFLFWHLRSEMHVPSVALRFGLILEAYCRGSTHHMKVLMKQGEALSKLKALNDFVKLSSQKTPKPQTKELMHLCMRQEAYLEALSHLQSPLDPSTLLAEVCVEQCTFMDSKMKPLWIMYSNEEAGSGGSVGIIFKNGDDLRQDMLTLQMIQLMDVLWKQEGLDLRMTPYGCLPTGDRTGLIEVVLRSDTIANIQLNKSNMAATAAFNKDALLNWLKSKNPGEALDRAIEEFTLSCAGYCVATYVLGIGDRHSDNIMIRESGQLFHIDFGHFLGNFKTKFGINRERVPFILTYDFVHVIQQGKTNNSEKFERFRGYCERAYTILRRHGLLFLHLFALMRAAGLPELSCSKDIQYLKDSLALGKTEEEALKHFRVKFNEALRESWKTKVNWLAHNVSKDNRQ
PI3K (p110δ/p85α) (h), sequence (P27986 whole entry partner): as the sequence (P27986 whole entry partner) above

As for `O=C1NC(=O)/C(=C\c2ccc3nccnc3c2)S1` [AS 605240], the “effect on onset of disease in model of systemic lupus erythematosis” value in data set [1] is recorded as “delay onset of disease”. In addition, the “efficacy in mouse model of rheumatoid arthritis” value in data set [2] is listed as “efficacious”.

On to `CC[C@H](Nc1ncnc(N)c1-c1nnc(C)o1)c1cc2cccc(Cl)c2c(=O)n1-c1ccccc1` [Ex. 5, (S)-3-(1-((6-amino-5-(5-methyl-1,3,4-oxadiazol-2-yl)pyrimidin-4-yl)amino)propyl)-8-chloro-2-phenylisoquinolin-1(2H)-one], for which the pIC50 (usually the negative decadic logarithm of the IC50, by convention in mol/L) in data set [3] is 6.59; in [4], 6.41; in data set [6], below 5.52. The same molecule displayed a Cl/F in data set [5] (iv dosing 1 mg/kg) of 52.2 mL/min/kg. In addition, the F in [5] (oral vs iv (iv 1 mg/kg; p.o. generally 5 or 10 mg/kg)) is recorded as 106.3%. Besides, the AUC(0-t) (usually exposure summed from dosing to a finite time, without extrapolation to infinity) in [5] (rat, plasma, iv dosing 1 mg/kg) amounted to 320 ng·h/mL. In data set [5] (rat, plasma, iv dosing 1 mg/kg), this molecule showed a half-life of 31.8 min. Also, the Vd in [5] (rat, plasma, iv dosing 1 mg/kg, read-out: Vss) came out at 1.87 L/kg. In addition, the CLint scaled (as a rule, the capacity of the preparation to metabolise the compound, expressed as a volume cleared per time) at 5 μM in [7] was 29.2 mL/min/kg; in data set [8], 108 mL/min/kg. Also, the half-life at 5 μM in data set [7] is 59.6 min; in data set [8] it was 23.1 min.

On to `Cc1nnc(-c2c(N)ncnc2N[C@@H](C)c2cc3cccc(-c4cnn(C)c4)c3c(=O)n2-c2ccccc2)o1` [Ex. 27, (S)-3-(1-((6-amino-5-(5-methyl-1,3,4-oxadiazol-2-yl)pyrimidin-4-yl)amino)ethyl)-8-(1-methyl-1H-pyrazol-4-yl)-2-phenylisoquinolin-1(2H)-one], for which the pIC50 was 7.77 in data set [9], below 5.52 in data set [3], 6.63 in data set [4] and below 5.52 in data set [6]. The CLint scaled at 5 μM in data set [7] was 15.5 mL/min/kg; in data set [8], 33.3 mL/min/kg. For the same molecule, the results for the half-life at 5 μM in [7] and in [8] were 112 min and 74.5 min, respectively.

As for `Cc1noc(-c2c(N)ncnc2N[C@@H](C)c2cc3cccc(-c4cnn(C)c4)c3c(=O)n2-c2ccccc2)n1` [Ex. 28, (S)-3-(1-((6-amino-5-(3-methyl-1,2,4-oxadiazol-5-yl)pyrimidin-4-yl)amino)ethyl)-8-(1-methyl-1H-pyrazol-4-yl)-2-phenylisoquinolin-1(2H)-one], the pIC50 is 8.05 in [9], 5.93 in data set [3], 6.98 in data set [4] and 6.65 in [6]. Besides, the CLint scaled at 5 μM in [7] is 64.1 mL/min/kg; in data set [8], 72.7 mL/min/kg. In addition, the half-life at 5 μM in [7] worked out at 27.1 min; in data set [8], 34.2 min.

As to `Cc1ccccc1-n1c(Cn2cnc3c(N)ncnc32)nc2cccc(C)c2c1=O` [IC87114], the “inhibits PI3Kδ” value in data set [10] is reported as “high nanomolar range (triple digit)”. Also, in data set [11], the “effect on inflammation and disease” value is “significantly ameliorate inflammation and disease”. Besides, the “activity against any protein kinases tested” value in data set [12] is given as “no activity”.

Values taken from patent US9512114B2, “Substituted aminopyrimidine compounds and methods of use” (Calitor Sciences, LLC, priority 2013, dated 2016).
